According to ChEMBL document CHEMBL1201862, “PubChem BioAssay data set” (2004):
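How tested: cells in 96-well plates exposed to compound for 48 hours at five concentrations. The concentration for 50% growth inhibition is given as GI50.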 The source made the active and inactive calls. No stated cut-off is given here; in the data, active = GI50 up to about 1.1 µM and inactive = higher.

Assays:
Assay in all cases: inhibition of tumour cell growth, NCI panel, 48 h
786-0 = test system: 786-0
A498 = test system: A498
A549 = test system: A549
CAKI-1 = test system: CAKI-1
CCRF-CEM = test system: CCRF-CEM
COLO 205 = test system: COLO 205
DLD-1 = test system: DLD-1
DMS-273 = test system: DMS-273
EKVX = test system: EKVX
HCC 2998 = test system: HCC 2998
HCT-116 = test system: HCT-116
HCT-15 = test system: HCT-15
HL-60 = test system: HL-60
HOP-18 = test system: HOP-18
HOP-62 = test system: HOP-62
HOP-92 = test system: HOP-92
HT-29 = test system: HT-29
IGROV-1 = test system: IGROV-1
K562 = test system: K562
KM-20L2 = test system: KM-20L2
KM12 = test system: KM12
LOX IMVI = test system: LOX IMVI
LXFL 529 = test system: LXFL 529
M14 = test system: M14
M19-MEL = test system: M19-MEL
MOLT-4 = test system: MOLT-4
Malme-3M = test system: Malme-3M
NCI-H226 = test system: NCI-H226
NCI-H23 = test system: NCI-H23
NCI-H460 = test system: NCI-H460
NCI-H522 = test system: NCI-H522
OVCAR-3 = test system: OVCAR-3
OVCAR-5 = test system: OVCAR-5
OVCAR-8 = test system: OVCAR-8
RPMI-8226 = test system: RPMI-8226
RXF 393 = test system: RXF 393
RXF 631 = test system: RXF 631
SF-268 = test system: SF-268
SF-295 = test system: SF-295
SF-539 = test system: SF-539
SK-MEL-28 = test system: SK-MEL-28
SK-MEL-2 = test system: SK-MEL-2
SK-MEL-5 = test system: SK-MEL-5
SK-OV-3 = test system: SK-OV-3
SN12C = test system: SN12C
SNB-19 = test system: SNB-19
SNB-78 = test system: SNB-78
SR = test system: SR
SW-620 = test system: SW-620
TK-10 = test system: TK-10
U-251 = test system: U-251
UACC-257 = test system: UACC-257
UACC-62 = test system: UACC-62
UO-31 = test system: UO-31
ACHN = test system: ACHN
DMS-114 = test system: DMS-114
NCI/ADR-RES = test system: NCI/ADR-RES
OVCAR-4 = test system: OVCAR-4
SNB-75 = test system: SNB-75
XF498 = test system: XF498
BT-549 = test system: BT-549
DU-145 = test system: DU-145
Hs-578T = test system: Hs-578T
MCF7 = test system: MCF7
MDA-MB-231 = test system: MDA-MB-231
MDA-MB-435 = test system: MDA-MB-435
MDA-N = test system: MDA-N
PC-3 = test system: PC-3
T47D = test system: T47D

CC(C)c1cccc(C(C)C)c1NC1=CC(=O)C(=O)c2ccccc21
GI50 (786-0): > 100 µM (inactive) | GI50 (A498): > 100 µM (inactive) | GI50 (A549): > 100 µM (inactive) | GI50 (CAKI-1): > 100 µM (inactive) | GI50 (CCRF-CEM): > 100 µM (inactive) | GI50 (COLO 205): > 100 µM (inactive) | GI50 (DLD-1): > 100 µM (inactive) | GI50 (DMS-273): > 100 µM (inactive) | GI50 (EKVX): > 100 µM (inactive) | GI50 (HCC 2998): > 100 µM (inactive) | GI50 (HCT-116): > 100 µM (inactive) | GI50 (HCT-15): > 100 µM | GI50 (HL-60): 77.8 µM (inactive) | GI50 (HOP-18): > 100 µM (inactive) | GI50 (HOP-62): > 100 µM (inactive) | GI50 (HOP-92): > 100 µM (inactive) | GI50 (HT-29): > 100 µM (inactive) | GI50 (IGROV-1): > 100 µM (inactive) | GI50 (K562): > 100 µM (inactive) | GI50 (KM-20L2): > 100 µM (inactive) | GI50 (KM12): > 100 µM (inactive) | GI50 (LOX IMVI): 36.3 µM (inactive) | GI50 (LXFL 529): > 100 µM (inactive) | GI50 (M14): > 100 µM (inactive) | GI50 (M19-MEL): 22.3 µM (inactive) | GI50 (MOLT-4): 58.5 µM (inactive) | GI50 (Malme-3M): > 100 µM (inactive) | GI50 (NCI-H226): > 100 µM (inactive) | GI50 (NCI-H23): 72.9 µM (inactive) | GI50 (NCI-H460): > 100 µM (inactive) | GI50 (NCI-H522): 58.6 µM (inactive) | GI50 (OVCAR-3): > 100 µM (inactive) | GI50 (OVCAR-5): > 100 µM (inactive) | GI50 (OVCAR-8): > 100 µM (inactive) | GI50 (RPMI-8226): > 100 µM (inactive) | GI50 (RXF 393): > 100 µM (inactive) | GI50 (RXF 631): > 100 µM (inactive) | GI50 (SF-268): > 100 µM (inactive) | GI50 (SF-295): > 100 µM (inactive) | GI50 (SF-539): > 100 µM (inactive) | GI50 (SK-MEL-28): > 100 µM (inactive) | GI50 (SK-MEL-2): > 100 µM (inactive) | GI50 (SK-MEL-5): > 100 µM (inactive) | GI50 (SK-OV-3): > 100 µM (inactive) | GI50 (SN12C): > 100 µM (inactive) | GI50 (SNB-19): > 100 µM (inactive) | GI50 (SNB-78): > 100 µM (inactive) | GI50 (SR): 35.5 µM (inactive) | GI50 (SW-620): > 100 µM (inactive) | GI50 (TK-10): > 100 µM (inactive) | GI50 (U-251): > 100 µM (inactive) | GI50 (UACC-257): 67 µM (inactive) | GI50 (UACC-62): > 100 µM (inactive) | GI50 (UO-31): > 100 µM (inactive)

CNC(=O)c1cccc2c(Nc3ccc(NS(C)(=O)=O)cc3OC)c3cccc(C)c3nc12
GI50 (786-0): 0.0483 µM (active) | GI50 (A498): 0.0841 µM (active) | GI50 (A549): 0.0151 µM (active) | GI50 (ACHN): 0.014 µM (active) | GI50 (CAKI-1): 0.0207 µM (active) | GI50 (CCRF-CEM): 0.0133 µM (active) | GI50 (COLO 205): 0.542 µM (active) | GI50 (DMS-114): 0.0322 µM (active) | GI50 (DMS-273): 0.0219 µM (active) | GI50 (EKVX): 1.34 µM (inactive) | GI50 (HCC 2998): 0.568 µM (active) | GI50 (HCT-116): 0.243 µM (active) | GI50 (HCT-15): 0.225 µM | GI50 (HL-60): 0.0131 µM (active) | GI50 (HOP-18): 0.571 µM (active) | GI50 (HOP-62): 0.0244 µM (active) | GI50 (HOP-92): 0.228 µM (active) | GI50 (HT-29): 0.478 µM (active) | GI50 (IGROV-1): 1.31 µM (inactive) | GI50 (K562): 0.23 µM (active) | GI50 (KM-20L2): 0.409 µM (active) | GI50 (KM12): 0.479 µM (active) | GI50 (LOX IMVI): 0.0488 µM (active) | GI50 (LXFL 529): 1.91 µM (inactive) | GI50 (M14): 0.102 µM (active) | GI50 (M19-MEL): 0.585 µM (active) | GI50 (MOLT-4): 0.0113 µM (active) | GI50 (Malme-3M): 0.43 µM (active) | GI50 (NCI-H226): 0.0546 µM (active) | GI50 (NCI-H23): 0.0418 µM (active) | GI50 (NCI-H460): < 0.01 µM (active) | GI50 (NCI-H522): 0.279 µM (active) | GI50 (NCI/ADR-RES): 2.26 µM (inactive) | GI50 (OVCAR-3): 1.39 µM (inactive) | GI50 (OVCAR-4): 1.9 µM (inactive) | GI50 (OVCAR-5): 0.282 µM (active) | GI50 (OVCAR-8): 0.333 µM (active) | GI50 (RPMI-8226): 0.0525 µM (active) | GI50 (RXF 393): 0.533 µM (active) | GI50 (SF-268): 0.114 µM (active) | GI50 (SF-295): 0.0333 µM (active) | GI50 (SF-539): 0.0628 µM (active) | GI50 (SK-MEL-28): 2.21 µM (inactive) | GI50 (SK-MEL-2): 1.64 µM (inactive) | GI50 (SK-MEL-5): 0.131 µM (active) | GI50 (SK-OV-3): 0.054 µM (active) | GI50 (SN12C): 0.0326 µM (active) | GI50 (SNB-19): 0.0555 µM (active) | GI50 (SNB-75): 0.122 µM (active) | GI50 (SR): < 0.01 µM (active) | GI50 (SW-620): 0.169 µM (active) | GI50 (TK-10): 1.24 µM (inactive) | GI50 (U-251): 0.0251 µM (active) | GI50 (UACC-257): 1.7 µM (inactive) | GI50 (UACC-62): 0.0631 µM (active) | GI50 (UO-31): 0.425 µM (active) | GI50 (XF498): 0.196 µM (active)

CCCCCCCCCCCCCCCCOP(=O)([O-])OCC[N+](C)(C)C [MILTEFOSINE]
GI50 (786-0): 9.55 µM (inactive) | GI50 (A498): 12.9 µM (inactive) | GI50 (A549): 7.11 µM (inactive) | GI50 (ACHN): 16 µM (inactive) | GI50 (BT-549): 5.35 µM (inactive) | GI50 (CAKI-1): 10.3 µM (inactive) | GI50 (COLO 205): 5.58 µM (inactive) | GI50 (DLD-1): 18.9 µM (inactive) | GI50 (DMS-114): 32.6 µM (inactive) | GI50 (DMS-273): 6.92 µM (inactive) | GI50 (DU-145): 19.4 µM (inactive) | GI50 (EKVX): 27 µM (inactive) | GI50 (HCC 2998): 5.38 µM (inactive) | GI50 (HCT-116): 18.2 µM (inactive) | GI50 (HCT-15): 10.5 µM | GI50 (HL-60): 4.74 µM (inactive) | GI50 (HOP-18): 39.4 µM (inactive) | GI50 (HOP-62): 14.9 µM (inactive) | GI50 (HOP-92): 2.68 µM (inactive) | GI50 (HT-29): 7.8 µM (inactive) | GI50 (Hs-578T): 19.3 µM (inactive) | GI50 (IGROV-1): 2.77 µM (inactive) | GI50 (K562): 39 µM (inactive) | GI50 (KM-20L2): > 10 µM (inactive) | GI50 (KM12): 2.74 µM (inactive) | GI50 (LOX IMVI): 21.5 µM (inactive) | GI50 (M14): 16.4 µM (inactive) | GI50 (M19-MEL): 15.6 µM (inactive) | GI50 (MCF7): 24.9 µM (inactive) | GI50 (MDA-MB-231): 21.8 µM (inactive) | GI50 (MDA-MB-435): 17.9 µM (inactive) | GI50 (MDA-N): 25.1 µM (inactive) | GI50 (MOLT-4): 8.73 µM (inactive) | GI50 (Malme-3M): 21.8 µM (inactive) | GI50 (NCI-H226): 20.7 µM (inactive) | GI50 (NCI-H23): 33.3 µM (inactive) | GI50 (NCI-H460): 6 µM (inactive) | GI50 (NCI-H522): 16.4 µM (inactive) | GI50 (NCI/ADR-RES): 43.4 µM (inactive) | GI50 (OVCAR-3): 23.9 µM (inactive) | GI50 (OVCAR-4): 18.2 µM (inactive) | GI50 (OVCAR-5): 8.17 µM (inactive) | GI50 (OVCAR-8): 25.8 µM (inactive) | GI50 (PC-3): 1.56 µM (inactive) | GI50 (RPMI-8226): 6.1 µM (inactive) | GI50 (RXF 393): 5.9 µM (inactive) | GI50 (SF-268): 22.1 µM (inactive) | GI50 (SF-295): 7.69 µM (inactive) | GI50 (SF-539): 30.5 µM (inactive) | GI50 (SK-MEL-28): 27.9 µM (inactive) | GI50 (SK-MEL-2): 21 µM (inactive) | GI50 (SK-MEL-5): 23.8 µM (inactive) | GI50 (SK-OV-3): 8.91 µM (inactive) | GI50 (SN12C): 16.1 µM (inactive) | GI50 (SNB-19): 17.7 µM (inactive) | GI50 (SNB-75): 18.7 µM (inactive) | GI50 (SNB-78): 47.6 µM (inactive) | GI50 (SR): 6.21 µM (inactive) | GI50 (SW-620): 20.8 µM (inactive) | GI50 (T47D): 18.2 µM (inactive) | GI50 (TK-10): 2.1 µM (inactive) | GI50 (U-251): 15.3 µM (inactive) | GI50 (UACC-257): 30.6 µM (inactive) | GI50 (UACC-62): 20.2 µM (inactive) | GI50 (UO-31): 20.6 µM (inactive) | GI50 (XF498): 17.9 µM (inactive)
